From patent US4075332A (priority 1976, dated 1978)
Where two headings read alike, the source gives them in different places.

Tests used:
Spider mites [1] = assay: Mite, Systemic; assay type: in vivo, two-spotted mite; settings: Tetranychus urticae, read-out: Mortality Produced, % - Spider Mites Systemic
Outline: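 Compound was dissolved in acetone and dispersed in water with Triton X-100 as an emulsion. 20 ml was applied as a soil drench to bean plants infested with two-spotted mites.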

Bean aphids [2] = assay: Aphid, Systemic; assay type: in vivo, bean aphid; settings: Aphis fabae, 48 h, read-out: Mortality Produced, % - Bean Aphids Systemic
Outline: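 Nasturtium plants infested with bean aphids received the compound as a soil drench, formulated as an acetone/water emulsion with Triton X-100. Aphid control was rated 2 days after treatment.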

Root-knot nematode = settings: in vivo
Corn earworm = assay: Field control of corn earworm on corn (Example 28); assay type: in vivo
Description: (§1) Corn plots were planted on March 22. Each treatment was made on a 50 ft. row flanked by guard rows. Treatments were replicated 4 times and the average rating is reported. Except for insecticide treatment, the plots were managed in accordance with recommended farming practice for the area.
Corn earworm applications were made during silking on May 29, June 1, 2, 3, 4, 5, 8, 9, 10, 11 and 12. Readings were made on June 15.

Fall armyworm = assay: Field control of fall armyworm on sweet corn (Example 28); assay type: in vivo
Protocol: as §1
Fall armyworm plots on sweet corn were treated on May 13, 20 and 27. Readings were made on May 29.

Cabbage looper [3] = assay: Field control of cabbage looper on cabbage (Example 28); assay type: in vivo; settings: Table XVI; 1.5 lbs/acre; nil 5.9; higher ratings indicate more damage
Description: (§2) King Cole cabbage and Vates Collards were transplanted on Feb. 1. Cabbage treatments were made on 50 ft. rows and replicated 4 times. Collard treatments were made on 25 ft. rows and replicated 4 times. Collard and cabbage rows were placed side-by-side and were flanked by guard rows. Except for insecticide treatment, the plots were managed in accordance with recommended farming practice for the area. Chemicals were applied on April 3, 10, 17, 24, May 1, 8, 15, 22 and 29, and readings were made on June 1.

Cabbage looper [4] = assay: Field control of cabbage looper on collards (Example 28); assay type: in vivo; settings: Table XVI; 1.5 lbs/acre; nil 5.3; higher ratings indicate more damage
Description: as §2

Southern army worm = settings: in vivo
Mexican bean beetle [5] = settings: in vivo
Spider mites [6] = settings: two-spotted spider mite, in vivo, 48 h
House fly [7] = settings: in vivo, 48 h
in vivo = settings: rat, po
Mexican bean beetle [8] = assay: whole plant or invertebrate; settings: Epilachna varivestis
Spider mites [9] = assay: whole plant or invertebrate; settings: Tetranychus urticae
Bean aphids [10] = assay: whole plant or invertebrate; settings: Aphis fabae, 48 h
House fly [11] = assay: whole plant or invertebrate; settings: Musca domestica, 48 h
Corn rootworm larvae = assay: whole plant or invertebrate; settings: soil, 120 h
[12] = read-out: Mortality Produced, % - Mex.Bean Beetle
[13] = 48 h, read-out: Mortality Produced, % - Spider Mites Contact
[14] = read-out: Mortality Produced, % -
[15] = read-out: Mortality Produced, % - Bean Aphids Contact
[16] = read-out: Mortality Produced, % - House Flies

CCCSP(=O)(OCC)SCC(C)SC (centres unmarked) [Example 32, O-Ethyl S-1-Propyl S'-2-Methylthiopropyl dithiophosphate]
mortality at 50 ppm (Spider mites [1]): 100% | mortality at 250 ppm (Spider mites [1]): 100% | mortality at 50 ppm (Bean aphids [2]): 0% | mortality at 250 ppm (Bean aphids [2]): 100% | Nematode Control,% (Root-knot nematode): 100% | Nematodes Control % at 25 lb/acre (Root-knot nematode): 100% | control of corn earworms (in words) (Corn earworm; 0.5 lbs per acre): excellent control | Corn Earworm, % Clean Ears (Corn earworm; Table XVI, 0.5 lbs/acre, nil 36): 94% | Fall Armyworm Injury Free Stalks of Sweet Corn, % (Fall armyworm; Table XVI, 0.75 lbs/acre, nil 67): 91% | control of fall armyworm (in words) (Fall armyworm; sweet corn, 0.75 lbs. per acre): well controlled | Cabbage Looper Harvest Rating - Cabbage (Cabbage looper [3]): 3.8 | Cabbage Looper Harvest Rating - Collards (Cabbage looper [4]): 2.0 | S.Armyworm Mortality,% (Southern army worm): 100% | Mortality Produced at 50 ppm, % - Southern Army Worm (Southern army worm; southern armyworm): 100% | Mortality Produced, % - S.Army Worm (Southern army worm; southern armyworm): 100% | Mortality Produced, % - Mex.Bean Beetle (Mexican bean beetle [5]): 100% | Mortality Produced, % - Spider Mites Contact (Spider mites [6]): 100% | Mortality Produced, % - House Flies (House fly [7]): 100% | LD50 at 336 h (in vivo): 109 mg/kg | mortality at 50 ppm (Mexican bean beetle [8]; read-out: Mexican Bean Beetles Mortality,%): 100% | mortality at 50 ppm (Mexican bean beetle [8]; read-out: Mortality Produced at 50 ppm, % - Mexican Bean Beetles): 100% | mortality at 50 ppm (Mexican bean beetle [8]; [12]): 100% | mortality at 250 ppm (Mexican bean beetle [8]; [12]): 100% | mortality at 50 ppm (Spider mites [9]; [13]): 100% | mortality at 250 ppm (Spider mites [9]; [13]): 100% | mortality at 50 ppm (Spider mites [9]; read-out: Mortality Produced at 50 ppm, % - Spider Mites): 100% | mortality at 10 ppm (Spider mites [9]; read-out: Spider Mites Mortality,%): 100% | mortality at 50 ppm (Bean aphids [10]; read-out: Bean Aphids Mortality,%): 100% | mortality at 50 ppm (Bean aphids [10]; read-out: Mortality Produced at 50 ppm, % - Bean Aphids): 100% | mortality at 50 ppm (Bean aphids [10]; [14]): 100% | mortality at 250 ppm (Bean aphids [10]; [14]): 100% | mortality at 50 ppm (Bean aphids [10]; [15]): 100% | mortality at 250 ppm (Bean aphids [10]; [15]): 100% | mortality at 50 ppm (House fly [11]; read-out: Mortality Produced at 50 ppm, % - Houseflies): 100% | mortality at 50 ppm (House fly [11]; [16]): 100% | mortality at 250 ppm (House fly [11]; [16]): 100% | mortality at 2.5 ppm (Corn rootworm larvae; read-out: Corn Rootworm Mortality, % at 2.5 ppm): 100% | mortality at 2.5 ppm (Corn rootworm larvae; read-out: Corn Rootworm Mortality,%): 100%
